Assay results taken from patent US20150157588A1, “Pharmaceutical Composition Comprising Amino-Phenyl-Acetic Acid Octadec-(Z)-9-enyl Ester and Use Thereof for Treating Tumors” (Yeda Research and Development Co., Ltd., priority 2012, published 2015).

System: anti-CD3-activated T cells
Experiment: Microarray gene expression, T cells activated by anti-CD3 antibody
Type: cell-based, human
Settings: anti-CD3-activated T cells; for Fold change COL6A3: 201438_at; for Fold change CTSL: 202087_s_at; for Fold change IGF2 /// INS-IGF2: 202409_at; for Fold change IGFBP2: 202718_at; for Fold change SERPINA1: 202833_s_at; for Fold change S100A8: 202917_s_at; for Fold change MET: 203510_at; for Fold change MMP9: 203936_s_at; for Fold change LOC645619 /// LOC731007: 204347_at; for Fold change AK3L1: 204348_s_at; for Fold change SLC7A7: 204588_s_at; for Fold change SERPINB2: 204614_at; for Fold change TTK: 204822_at; for Fold change GNG4: 205184_at; for Fold change ADAMDEC1: 206134_at; for Fold change PLA2G7: 206214_at; for Fold change HCK: 208018_s_at
Procedure: CD3 positive T cells were extracted from a healthy donor according to a standard protocol, and seeded in T cell medium including RPMI, 10% fetal calf serum, sodium pyruvate, L-Glutamine, and Penicillin/Streptomycin. Following an overnight incubation with medium, the cells were treated by incubating for 2 hours at 37° C. with amino-phenyl-acetic acid octadec-(Z)-9-enyl ester at a concentration of 10 micrograms/ml in a final volume of 10 ml in T-cell medium with or without 0.05% ethanol. After incubation, half the cells from each treatment were centrifuged and 2 ml of Tri-reagent (Sigma) were added to the pellet. The other half of the cells from each treatment were transferred to anti-CD3 antibody coated 24 well plates for an overnight incubation at 37° C. Coating plates with an anti-CD3 antibody was carried out by incubating with 2 micrograms/ml of OKT3 anti-CD3 antibody overnight at 4° C., washing three times with PBS and blocking with filtered 1% Bovine Serum Albumin for 1 hour. After activation with anti-CD3 antibody, cells were centrifuged and 2 ml of Tri-reagent were added to the pellet.
RNA was extracted from unstimulated cells and from cells activated with anti-CD3 according to standard protocols and used for hybridization with a Human Genome U133A 2.0 (Affymetrix, Catalogue number 900468), according to the manufacturer's instructions. The results of the hybridization were read by a GeneChip scanner 3000 (Affymetrix) and analyzed by QuantArray (GSI lumonics).
The effects of amino-phenyl-acetic acid octadec-(Z)-9-enyl ester in ethanol solution or in an aqueous vehicle (hereinafter termed “in PBS”) on gene expression in unstimulated T cells and T cells activated by anti-CD3 antibody were compared by microarray analysis.

[1] = in ethanol solution vs untreated

## CCCCCCCC/C=C\CCCCCCCCOC(=O)C(N)c1ccccc1 (stereo not shown) [amino-phenyl-acetic acid octadec-(Z)-9-enyl ester]
39402_at, in ethanol solution vs untreated
  Fold change IL1B: 2.03
201109_s_at, in ethanol solution vs untreated
  Fold change THBS1: 1.94
201123_s_at, in ethanol solution vs in PBS
  Fold Change EIF5A: −1.97
In ethanol solution vs in PBS
  Fold change COL6A3: −2.16
  Fold change CTSL: 2.18
  Fold change IGF2 /// INS-IGF2: −2.42
  Fold change IGFBP2: −6.02
  Fold change SERPINA1: 1.97
  Fold change S100A8: 2.11
  Fold change MET: 2.76
  Fold change MMP9: 2.67
  Fold change LOC645619 /// LOC731007: −2.52
  Fold change AK3L1: −3.93
  Fold change SLC7A7: 2.05
  Fold change SERPINB2: 2.60
  Fold change TTK: −2.04
  Fold change GNG4: 2.04
  Fold change ADAMDEC1: 2.41
  Fold change PLA2G7: 2.12
  Fold change HCK: 1.93
[1]
  Fold change COL6A3: −2.06
  Fold change CTSL: 2.30
  Fold change IGF2 /// INS-IGF2: −2.17
  Fold change IGFBP2: −5.13
  Fold change SERPINA1: 2.12
  Fold change S100A8: 2.24
  Fold change MET: 2.35
  Fold change MMP9: 2.74
  Fold change LOC645619 /// LOC731007: −2.25
  Fold change AK3L1: −3.14
  Fold change SLC7A7: 2.07
  Fold change SERPINB2: 3.14
  Fold change TTK: −2.40
  Fold change GNG4: 2.23
  Fold change ADAMDEC1: 2.87
  Fold change PLA2G7: 3.44
  Fold change HCK: 2.14
201848_s_at, in ethanol solution vs in PBS
  Fold change BNIP3: −3.39
201848_s_at, in ethanol solution vs untreated
  Fold change BNIP3: −2.99
201849_at, in ethanol solution vs in PBS
  Fold change BNIP3: −3.34
201849_at, in ethanol solution vs untreated
  Fold change BNIP3: −3.24
202436_s_at, in ethanol solution vs untreated
  Fold change CYP1B1: 2.02
203282_at, in ethanol solution vs in PBS
  Fold Change GBE1: −1.92
203294_s_at, in PBS vs untreated
  Fold change LMAN1: 1.91
203504_s_at, in ethanol solution vs in PBS
  Fold Change ABCA1: −1.90
203695_s_at, in ethanol solution vs untreated
  Fold change DFNA5: 1.92
203963_at, in ethanol solution vs in PBS
  Fold Change CA12: 2.02
203963_at, in ethanol solution vs untreated
  Fold Change CA12: 1.91
203967_at, in ethanol solution vs in PBS
  Fold Change CDC6: −2.03
204232_at, in ethanol solution vs untreated
  Fold change FCER1G: 1.94
204475_at, in ethanol solution vs untreated
  Fold change MMP1: 2.32
204508_s_at, in ethanol solution vs in PBS
  Fold Change CA12: 2.09
204567_s_at, in ethanol solution vs untreated
  Fold change ABCG1: −2.12
204603_at, in ethanol solution vs untreated
  Fold change EXO1: −2.25
205003_at, in ethanol solution vs untreated
  Fold change DOCK4: 2.33
205024_s_at, in ethanol solution vs untreated
  Fold change RAD51: −2.09
205067_at, in ethanol solution vs untreated
  Fold change IL1B: 2.03
205207_at, in ethanol solution vs untreated
  Fold change IL6: 1.95
205296_at, in ethanol solution vs untreated
  Fold change probeset 205296_at: −2.02
205519_at, in ethanol solution vs in PBS
  Fold Change WDR76: −2.42
205568_at, in ethanol solution vs untreated
  Fold change AQP9: 2.27
205787_x_at, in PBS vs untreated
  Fold change ZC3H11A: 1.95
205970_at, in ethanol solution vs untreated
  Fold change MT3: −2.05
206025_s_at, in ethanol solution vs untreated
  Fold change TNFAIP6: 1.92
206108_s_at, in PBS vs untreated
  Fold change SFRS6: 2.16
206421_s_at, in ethanol solution vs untreated
  Fold change SERPINB7: 1.99
206569_at, in ethanol solution vs untreated
  Fold change IL24: 1.97
207442_at, in ethanol solution vs untreated
  Fold change CSF3: 2.14
207543_s_at, in ethanol solution vs in PBS
  Fold Change P4HA1: −2.20
208050_s_at, in PBS vs untreated
  Fold change CASP2: 2.04
